Data as given in patent US20230312528A1, “2-OXO-IMIDAZOLIDINE-4-CARBOXAMIDES AS NAV1.8 INHIBITORS” (Merck Sharp & Dohme LLC, priority 2020, published 2023).

Biological target: human NaV1.8 (Homo sapiens (Human), UniProt Q9Y5Y9)
Assay: Nav1.8 Qube automated patch-clamp assay
Format: cell-based
Details: human NaV1.8 stably expressed in HEK 293 cells; automated 384-well patch-clamp; resting or inactivated state not specified
Description: Compounds were tested on human NaV1.8 and NaV1.5 channels stably expressed in human embryo kidney (HEK) 293 cells. Sodium current measurements on Qube® were conducted as follows: automated 384-well patch-clamp assays on the Qube® platform (Sophion Biosciences) were used to measure the inhibition of sodium flow through human NaV1.8 and NaV1.5 channels. Whole-cell voltage-clamp recordings were performed in QChips® (Sophion Biosciences) at room temperature. NaV1.8 current measurements on Qube® were obtained as follows: NaV1.8 currents were elicited with a 10 second 1 Hertz (Hz) pulse train from a holding potential of −90 millivolts (mV), delivered to the cells once per minute in the control condition (DMSO only) and after compound addition. The 1 hertz pulse train stimulation consisted of ten test pulses to 10 millivolt (mV) for 20 milliseconds (ms), each of which was followed by a 980 millisecond repolarization to −67 millivolts. At the end of the 10 second pulse train stimulation, a 5 second hyperpolarization step to −100 millivolt (mV) was used to recover NaV1.8 from fast inactivation. The peak currents elicited by the 1st and 10th test pulses were used to determine IC50 values for resting inhibition and inactivated state inhibition. NaV1.5 current measurements on Qube® were obtained as follows: NaV1.5 currents were elicited with a 20 second 3 Hertz pulse train in the control condition (DMSO only) and after compound addition. The pulse train consisted of sixty 20 millisecond test pulses to 0 millivolt from a holding potential of −80 millivolt (mV). The average peak currents elicited by the last 3 test pulses were used to determine IC50 values for NaV1.5 inhibition.
The following buffers were used for the Qube® recordings: External buffer for NaV1.8 Qube® recording: 150 NaCl, 2 CaCl2, 5 KCl, 1 Mg Cl2, 10 HEPES, 12 Dextrose; External buffer for Qube® NaV1.5 recording: 120 N-Methyl-D-Glucamine, 40 NaCl, 1 KCl, 2.7 CaCl2, 5 HEPES, 0.5 MgCl2; and Internal buffer for Qube® recording: 120 CsF, 30 CsCl, 10 EGTA, 5 HEPES, 5 NaF, 2 MgCl2.
For all Qube® experiments offline analysis was used to determine percent inhibition as a function of drug concentration. IC50 values were determined by fitting to the Hill equation.

Sequence of human NaV1.8 (Q9Y5Y9 whole entry): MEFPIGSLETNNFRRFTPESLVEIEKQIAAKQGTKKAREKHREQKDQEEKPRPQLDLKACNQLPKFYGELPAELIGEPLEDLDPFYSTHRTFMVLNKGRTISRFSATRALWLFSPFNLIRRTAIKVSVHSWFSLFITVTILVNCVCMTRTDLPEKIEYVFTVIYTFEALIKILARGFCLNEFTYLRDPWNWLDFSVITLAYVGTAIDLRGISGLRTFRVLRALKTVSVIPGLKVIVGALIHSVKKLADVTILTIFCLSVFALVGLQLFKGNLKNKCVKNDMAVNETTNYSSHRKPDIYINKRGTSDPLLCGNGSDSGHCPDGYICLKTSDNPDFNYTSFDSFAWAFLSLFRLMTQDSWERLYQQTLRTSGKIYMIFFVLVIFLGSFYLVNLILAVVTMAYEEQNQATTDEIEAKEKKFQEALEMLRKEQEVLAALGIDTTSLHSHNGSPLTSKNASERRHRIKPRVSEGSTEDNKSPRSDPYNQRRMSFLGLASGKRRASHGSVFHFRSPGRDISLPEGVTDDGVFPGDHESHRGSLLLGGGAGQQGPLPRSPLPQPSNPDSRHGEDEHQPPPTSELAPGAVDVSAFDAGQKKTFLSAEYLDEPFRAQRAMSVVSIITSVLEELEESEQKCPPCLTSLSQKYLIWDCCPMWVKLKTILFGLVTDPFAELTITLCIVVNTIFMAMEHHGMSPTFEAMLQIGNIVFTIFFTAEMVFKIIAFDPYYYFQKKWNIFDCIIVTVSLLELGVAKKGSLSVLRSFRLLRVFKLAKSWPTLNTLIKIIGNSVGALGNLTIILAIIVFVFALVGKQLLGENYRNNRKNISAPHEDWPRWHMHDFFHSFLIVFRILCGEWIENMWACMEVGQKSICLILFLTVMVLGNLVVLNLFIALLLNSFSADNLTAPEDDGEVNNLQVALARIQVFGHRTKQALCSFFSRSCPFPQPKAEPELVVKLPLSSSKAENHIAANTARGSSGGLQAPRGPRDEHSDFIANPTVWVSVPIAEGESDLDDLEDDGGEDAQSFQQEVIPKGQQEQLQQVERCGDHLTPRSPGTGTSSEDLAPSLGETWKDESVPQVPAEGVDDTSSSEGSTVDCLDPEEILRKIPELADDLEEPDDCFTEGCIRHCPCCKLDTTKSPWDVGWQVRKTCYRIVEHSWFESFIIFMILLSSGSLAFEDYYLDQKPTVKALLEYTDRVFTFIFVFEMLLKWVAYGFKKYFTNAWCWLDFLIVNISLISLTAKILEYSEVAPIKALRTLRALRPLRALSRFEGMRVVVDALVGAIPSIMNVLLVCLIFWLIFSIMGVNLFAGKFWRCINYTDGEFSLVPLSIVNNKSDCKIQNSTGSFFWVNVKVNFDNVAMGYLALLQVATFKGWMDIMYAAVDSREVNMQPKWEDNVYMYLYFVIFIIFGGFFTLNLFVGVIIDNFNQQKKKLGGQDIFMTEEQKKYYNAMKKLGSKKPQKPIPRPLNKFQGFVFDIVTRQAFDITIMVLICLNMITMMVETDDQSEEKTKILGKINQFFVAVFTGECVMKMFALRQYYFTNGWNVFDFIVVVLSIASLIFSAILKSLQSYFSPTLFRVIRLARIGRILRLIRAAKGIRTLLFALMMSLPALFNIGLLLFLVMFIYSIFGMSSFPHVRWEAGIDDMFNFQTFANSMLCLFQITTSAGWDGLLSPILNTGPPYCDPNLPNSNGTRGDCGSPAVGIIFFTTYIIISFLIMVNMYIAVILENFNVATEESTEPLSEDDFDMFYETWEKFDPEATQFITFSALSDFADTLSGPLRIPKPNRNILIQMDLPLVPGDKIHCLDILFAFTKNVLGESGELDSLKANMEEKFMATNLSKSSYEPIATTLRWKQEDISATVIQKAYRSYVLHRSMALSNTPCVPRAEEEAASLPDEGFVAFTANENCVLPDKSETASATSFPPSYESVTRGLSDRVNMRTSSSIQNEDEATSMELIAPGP

IC50	Compound
81 nM	N#Cc1cccc(C(NC(=O)[C@@H]2CNC(=O)N2)c2ccc(F)c(Cl)c2)n1 (single isomer, unassigned) [Example 12A, (4S)-N-[((R or S)-3-chloro-4-fluorophenyl)(6-cyanopyridin-2-yl)methyl]-2-oxoimidazolidine-4-carboxamide]
1420 nM	N#Cc1cccc(C(NC(=O)[C@@H]2CNC(=O)N2)c2ccc(F)c(Cl)c2)n1 (single isomer, unassigned) [Example 12B, (4S)-N-[((R or S)-3-chloro-4-fluorophenyl)(6-cyanopyridin-2-yl)methyl]-2-oxoimidazolidine-4-carboxamide]
1.1 nM	O=C1NC[C@@H](C(=O)NC(c2cnc(C3CC3)c(Cl)c2)c2ccc(F)c(Cl)c2F)N1 (single isomer, unassigned) [Example 13A, (4S)-N-[((R or S)-5-chloro-6-cyclo-propylpyridin-3-yl)(3-chloro-2,4-difluoro-phenyl)methyl]-2-oxoimidazolidine-4-carboxamide]
38 nM	O=C1NC[C@@H](C(=O)NC(c2cnc(C3CC3)c(Cl)c2)c2ccc(F)c(Cl)c2F)N1 (single isomer, unassigned) [Example 13B, (4S)-N-[((R or S)-5-chloro-6-cyclo-propylpyridin-3-yl)(3-chloro-2,4-difluoro-phenyl)methyl]-2-oxoimidazolidine-4-carboxamide]
2.4 nM	O=C1NC[C@@H](C(=O)NC(c2cnc(C(F)(F)F)c(Cl)c2)c2ccc(F)c(C(F)(F)F)n2)N1 (single isomer, unassigned) [Example 14A, (4S)-N-{[(R or S)-5-chloro-6-(trifluoro-methyl)pyridin-3-yl][5-fluoro-6-(trifluoro-methyl)pyridin-2-yl]methyl}-2-oxoimidazolidine-4-carboxamide]
21 nM	O=C1NC[C@@H](C(=O)NC(c2cnc(C(F)(F)F)c(Cl)c2)c2ccc(F)c(C(F)(F)F)n2)N1 (single isomer, unassigned) [Example 14B, (4S)-N-{[R or S)-5-chloro-6-(trifluoro-methyl)pyridin-3-yl][5-fluoro-6-(trifluoro-methyl)pyridin-2-yl]methyl}-2-oxoimidazolidine-4-carboxamide]
31 nM	C[C@@H]1C[C@H](C(NC(=O)[C@@H]2CNC(=O)N2)c2ccc(F)c(Cl)c2)C[C@H](C)N1CC(F)(F)F (single isomer, unassigned) [Example 15A, (S)-N-((R or S)-(3-chloro-4-fluoro-phenyl)(cis-2,6-dimethyl-1-(2,2,2-trifluoroethyl)piperidin-4-yl)methyl)-2-oxoimidazolidine-4-carboxamide]
965 nM	C[C@@H]1C[C@H](C(NC(=O)[C@@H]2CNC(=O)N2)c2ccc(F)c(Cl)c2)C[C@H](C)N1CC(F)(F)F (single isomer, unassigned) [Example 15B, (S)-N-((R or S)-(3-chloro-4-fluoro-phenyl)(cis-2,6-dimethyl-1-(2,2,2-trifluoroethyl)piperidin-4-yl)methyl)-2-oxoimidazolidine-4-carboxamide]
1.1 nM	O=C1NC[C@@H](C(=O)NC(c2ccc(F)c(Cl)c2)c2csc(C3(C(F)(F)F)CC3)n2)N1 (single isomer, unassigned) [Example 16A, (S)-N-((R or S)-(3-choro-4-fluoro-phenyl)(2-(1-(trifluoromethyl)cyclopropyl)thiazol-4-yl)methyl)-2-oxoimidazolidine-4-carboxamide]
14 nM	O=C1NC[C@@H](C(=O)NC(c2ccc(F)c(Cl)c2)c2csc(C3(C(F)(F)F)CC3)n2)N1 (single isomer, unassigned) [Example 16B, (S)-N-((R or S)-(3-chloro-4-fluoro-phenyl)(2-(1-(trifluoromethyl)cyclopropyl)thiazol-4-yl)methyl)-2-oxoimidazolidine-4-carboxamide]
0.6 nM	O=C1NC[C@@H](C(=O)NC(c2ccc(Cl)cc2)c2ccc(F)c(C(F)(F)F)c2)N1 (single isomer, unassigned) [Example 17A, (S)-N-((R or S)-(4-chlorophenyl)(4-fluoro-3-(trifluoro-methyl)phenyl)methyl)-2-oxoimidazolidine-4-carboxamide]
7 nM	O=C1NC[C@@H](C(=O)NC(c2ccc(Cl)cc2)c2ccc(F)c(C(F)(F)F)c2)N1 (single isomer, unassigned) [Example 17B, (S)-N-((R or S)-(4-chloropehnyl)(4-fluoro-3-(trifluoro-methyl)phenyl)methyl)-2-oxoimidazolidine-4-carboxamide]
18 nM	N#Cc1ccc(C(NC(=O)[C@@H]2CNC(=O)N2)c2ccc(F)c(Cl)c2)cc1 (single isomer, unassigned) [Example 18A, (S)-N-((R or S)-(3-chloro-4-fluoro-phenyl)(4-cyano-phenyl)methyl)-2-oxoimidazolidine-4-carboxamide]
17 nM	N#Cc1ccc(C(NC(=O)[C@@H]2CNC(=O)N2)c2ccc(F)c(Cl)c2)cc1 (single isomer, unassigned) [Example 18B, (S)-N-((R or S)-(3-chloro-4-fluoro-phenyl)(4-cyano-phenyl)methyl)-2-oxoimidazolidine-4-carboxamide]
209 nM	O=C(NC(c1ccc(Cl)cc1)c1ccc(Cl)cc1)C1CNC(=O)N1CCO (single isomer, unassigned) [Example 21A, (R or S)—N-(bis(4-chlorophenyl)methyl)-3-(2-hydroxyethyl)-2-oxoimidazolidine-4-carboxamide]
14700 nM	O=C(NC(c1ccc(Cl)cc1)c1ccc(Cl)cc1)C1CNC(=O)N1CCO (single isomer, unassigned) [Example 21B, (R or S)—N-(bis(4-chlorophenyl)methyl)-3-(2-hydroxyethyl)-2-oxoimidazolidine-4-carboxamide]
373 nM	O=C1NC[C@@H](C(=O)NC(c2ccc(Cl)cc2)c2cnc(C(F)(F)F)[nH]2)N1 (single isomer, unassigned) [Example 22A, (S)—N—((R or S)-(4-chlorophenyl)(2-(trifluoromethyl)-1H-imidazol-4-yl)methyl)-2-oxoimidazolidine-4-carboxamide]
6410 nM	O=C1NC[C@@H](C(=O)NC(c2ccc(Cl)cc2)c2cnc(C(F)(F)F)[nH]2)N1 (single isomer, unassigned) [Example 22B, (S)—N—((R or S)-(4-chlorophenyl)(2-(trifluoromethyl)-1H-imidazol-4-yl)methyl)-2-oxoimidazolidine-4-carboxamide]
15 nM	O=C1NC[C@@H](C(=O)NC(CC2CCC(C(F)(F)F)CC2)c2ccc(F)c(Cl)c2F)N1 (single isomer, unassigned) [Example 23A, (S)—N—((R or S)-1-(3-chloro-2,4-difluorophenyl)-2-((cis or trans)-4-(trifluoromethyl)cyclohexyl)ethyl)-2-oxoimidazolidine-4-carboxamide]
4.9 nM	O=C1NC[C@@H](C(=O)NC(CC2CCC(C(F)(F)F)CC2)c2ccc(F)c(Cl)c2F)N1 (single isomer, unassigned) [Example 23B, (S)—N—((R or S)-1-(3-chloro-2,4-difluorophenyl)-2-((cis or trans)-4-(trifluoro-methyl)cyclohexyl)ethyl)-2-oxoimidazolidine-4-carboxamide]
62 nM	O=C1NC[C@@H](C(=O)NC(CC2CCC(C(F)(F)F)CC2)c2ccc(F)c(Cl)c2F)N1 (single isomer, unassigned) [Example 23C, (S)—N—((R or S)-1-(3-chloro-2,4-difluorophenyl)-2-((cis or trans)-4-(trifluoromethyl)cyclohexyl)ethyl)-2-oxoimidazolidine-4-carboxamide]
190 nM	O=C1NC[C@@H](C(=O)NC(CC2CCC(C(F)(F)F)CC2)c2ccc(F)c(Cl)c2F)N1 (single isomer, unassigned) [Example 23D, (S)—N—((R or S)-1-(3-chloro-2,4-difluorophenyl)-2-((cis or trans)-4-(trifluoromethyl)cyclohexyl)ethyl)-2-oxoimidazolidine-4-carboxamide]

Compound	IC50
CC1(C(=O)NC(c2ccc(Cl)cc2)c2ccc(Cl)cc2)NC(=O)NC1=O (single isomer, unassigned) [Example 20A, (R or S)—N-(bis(4-chlorophenyl)methyl)-4-methyl-2,5-dioxoimidazolidine-4-carboxamide]	19200 nM
CC1(C(=O)NC(c2ccc(Cl)cc2)c2ccc(Cl)cc2)NC(=O)NC1=O (single isomer, unassigned) [Example 20B, (R or S)—N-(bis(4-chlorophenyl)methyl)-4-methyl-2,5-dioxoimidazolidine-4-carboxamide]	9480 nM
